Where “and” joins values, the source holds several entries; their conditions need not be identical. Identical values can stand only once. Toxic doses and inconclusive results are not listed. How the source made its calls: active means survival T/C of 150% or more; inactive means T/C below 125% in these data.
System: P388 leukemia ip, CD2F1 mice, survival T/C
Experiment: NCI In Vivo Anticancer Drug Screen. Data for tumor model P388 Leukemia (intraperitoneal) in CD2F1 (CDF1) mice
Conditions: endpoint: median survival time, higher = longer survival
In short: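 Mice carrying the transplanted tumor received test compound or vehicle. Survival was recorded in each group, and the value is the treated-group measurement divided by that of the vehicle-treated control group.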

[1] = dose: 60.0 mg/kg/injection, schedule: Q01DX005 (ip), vehicle: saline with Tween-80
[2] = dose: 120.0 mg/kg/injection, schedule: Q01DX005 (ip), vehicle: saline with Tween-80
[3] = dose: 240.0 mg/kg/injection, schedule: Q01DX005 (ip), vehicle: saline with Tween-80
[4] = dose: 100.0 mg/kg/injection, schedule: Q04DX002 (ip), vehicle: saline with Tween-80
[5] = dose: 200.0 mg/kg/injection, schedule: Q04DX002 (ip), vehicle: saline with Tween-80
[6] = dose: 400.0 mg/kg/injection, schedule: Q04DX002 (ip), vehicle: saline with Tween-80
[7] = dose: 50.0 mg/kg/injection, schedule: Q01DX009 (ip), vehicle: Klucel (hydroxypropylcellulose) (HPC)
[8] = dose: 100.0 mg/kg/injection, schedule: Q01DX009 (ip), vehicle: Klucel (hydroxypropylcellulose) (HPC)
[9] = dose: 200.0 mg/kg/injection, schedule: Q01DX009 (ip), vehicle: Klucel (hydroxypropylcellulose) (HPC)
[10] = dose: 50.0 mg/kg/injection, schedule: Q01DX009 (ip), vehicle: saline with Tween-80
[11] = dose: 100.0 mg/kg/injection, schedule: Q01DX009 (ip), vehicle: saline with Tween-80
[12] = dose: 200.0 mg/kg/injection, schedule: Q01DX009 (ip), vehicle: saline with Tween-80

Measured: T/C

O=[N+]([O-])c1ccc(NN=C(CO)CO)c([N+](=O)[O-])c1
inactive: dose: 50.0 mg/kg/injection, schedule: Q01DX009 (ip), vehicle: suspension in saline 98 % of control | dose: 100.0 mg/kg/injection, schedule: Q01DX009 (ip), vehicle: suspension in saline 98 % of control | dose: 200.0 mg/kg/injection, schedule: Q01DX009 (ip), vehicle: suspension in saline 97 % of control | dose: 400.0 mg/kg/injection, schedule: Q01DX009 (ip), vehicle: suspension in saline 97 % of control

COC1(OC)C=NNc2nncn21
inactive: dose: 50.0 mg/kg/injection, schedule: Q01DX005 (ip), vehicle: saline 105 % of control | dose: 100.0 mg/kg/injection, schedule: Q01DX005 (ip), vehicle: saline 107 % of control

C[CH2][Sn]([CH2]C)[O][Sn]([Cl])([CH2]C)[CH2]C
inactive: dose: 3.12 mg/kg/injection, schedule: Q01DX005 (ip), vehicle: Klucel (hydroxypropylcellulose) (HPC) 116 % of control | dose: 6.25 mg/kg/injection, schedule: Q01DX005 (ip), vehicle: Klucel (hydroxypropylcellulose) (HPC) 118 % of control and 121 % of control | dose: 12.5 mg/kg/injection, schedule: Q01DX005 (ip), vehicle: Klucel (hydroxypropylcellulose) (HPC) 104 % of control and 121 % of control | dose: 25.0 mg/kg/injection, schedule: Q01DX005 (ip), vehicle: Klucel (hydroxypropylcellulose) (HPC) 120 % of control

O=C(Nc1ccc(Cl)cc1)Nc1nnc(COc2ccccc2)o1
inactive: dose: 15.0 mg/kg/injection, schedule: Q01DX005 (ip), vehicle: saline with Tween-80 90 % of control | dose: 30.0 mg/kg/injection, schedule: Q01DX005 (ip), vehicle: saline with Tween-80 88 % of control | [1] 89 % of control and 90 % of control | [2] 90 % of control | [3] 87 % of control

CN(C)C1C(=O)c2ccccc2C1=O
inactive: [1] 96 % of control | [2] 107 % of control | [3] 112 % of control

NC(=O)c1[nH]nc(C2OC(CO)C(O)C2O)c1O (stereo unspecified)
inactive: dose: 0.31 mg/kg/injection, schedule: Q01DX009 (ip), vehicle: saline 109 % of control | dose: 0.62 mg/kg/injection, schedule: Q01DX009 (ip), vehicle: saline 122 % of control | dose: 0.67 mg/kg/injection, schedule: Q01DX009 (ip), vehicle: saline 124 % of control | dose: 1.0 mg/kg/injection, schedule: Q04DX003 (ip), vehicle: saline 108 % of control | dose: 2.0 mg/kg/injection, schedule: Q04DX003 (ip), vehicle: saline 113 % of control | dose: 3.0 mg/kg/injection, schedule: Q01DX009 (ip), vehicle: saline 107 % of control | dose: 3.0 mg/kg/injection, schedule: Q04DX003 (ip), vehicle: saline 113 % of control | dose: 4.0 mg/kg/injection, schedule: Q04DX003 (ip), vehicle: saline 120 % of control | dose: 4.4 mg/kg/injection, schedule: Q04DX003 (ip), vehicle: saline 115 % of control | dose: 6.7 mg/kg/injection, schedule: Q04DX003 (ip), vehicle: saline 115 % of control | dose: 8.0 mg/kg/injection, schedule: Q04DX003 (ip), vehicle: saline 111 % of control | dose: 9.0 mg/kg/injection, schedule: Q04DX003 (ip), vehicle: saline 123 % of control | dose: 10.0 mg/kg/injection, schedule: Q04DX003 (ip), vehicle: saline sonified 116 % of control | dose: 10.0 mg/kg/injection, schedule: Q04DX003 (ip), vehicle: saline 106 % of control | dose: 16.0 mg/kg/injection, schedule: Q04DX003 (ip), vehicle: saline 111 % of control | dose: 27.0 mg/kg/injection, schedule: Q04DX003 (ip), vehicle: saline 117 % of control | dose: 32.0 mg/kg/injection, schedule: Q04DX003 (ip), vehicle: saline 104 % of control

COc1ccc(SS(=O)c2ccccc2)cc1 (stereo unspecified)
inactive: [4] 105 % of control | [5] 111 % of control | [6] 108 % of control

COc1ccc2c(c1)CCC1(C)C2=CC(=O)/C1=C\[O-].COc1ccc2c(c1)CCC1(C)C2=CC(=O)/C1=C\[O-].[Cu+2] (stereo unspecified)
inactive: dose: 25.0 mg/kg/injection, schedule: Q04DX003 (ip), vehicle: saline with Tween-80 90 % of control | dose: 50.0 mg/kg/injection, schedule: Q04DX003 (ip), vehicle: saline with Tween-80 90 % of control | dose: 100.0 mg/kg/injection, schedule: Q04DX003 (ip), vehicle: saline with Tween-80 86 % of control

CCC12CCC(=O)C=C1CCCC2=O (stereo unspecified)
inactive: dose: 25.0 mg/kg/injection, schedule: Q01DX009 (ip), vehicle: saline sonified 104 % of control | dose: 50.0 mg/kg/injection, schedule: Q01DX009 (ip), vehicle: saline sonified 86 % of control | dose: 100.0 mg/kg/injection, schedule: Q01DX009 (ip), vehicle: saline sonified 109 % of control

CC(=O)OC1CSC(OC(C)=O)C(OC(C)=O)C1[N+](=O)[O-] (stereo unspecified)
inactive: dose: 100.0 mg/kg/injection, schedule: Q04DX002 (ip), vehicle: saline 99 % of control | dose: 200.0 mg/kg/injection, schedule: Q04DX002 (ip), vehicle: saline 115 % of control

CCCCCCCC/C=C\CCCCCCCC(=O)OCCSCCOC(C)=O
inactive: [7] 94 % of control | [8] 101 % of control | [9] 94 % of control

CC(C)(C)c1noc2c1C(=O)c1ccccc1-2
inactive: dose: 60.0 mg/kg/injection, schedule: Q01DX005 (ip), vehicle: Klucel (hydroxypropylcellulose) (HPC) 99 % of control | dose: 120.0 mg/kg/injection, schedule: Q01DX005 (ip), vehicle: Klucel (hydroxypropylcellulose) (HPC) 91 % of control | dose: 240.0 mg/kg/injection, schedule: Q01DX005 (ip), vehicle: Klucel (hydroxypropylcellulose) (HPC) 96 % of control

COc1cc(OC)c(NC(=S)NC(C)C)cc1Cl
inactive: [7] 91 % of control | [8] 96 % of control | [9] 99 % of control

O=C(N/N=C/c1cc(Cl)cc(Cl)c1[O-])c1ccccc1.O=C(N/N=C/c1cc(Cl)cc(Cl)c1[O-])c1ccccc1.[Fe+2]
inactive: [4] 98 % of control | [5] 103 % of control | [6] 100 % of control

CN1CCN(C2=NS(=O)(=O)c3cc(Cl)ccc3N2)CC1
inactive: [10] 104 % of control | [11] 104 % of control | [12] 91 % of control

COc1cc2c(c(O)c1OC)-c1ccc(OC)c(=O)cc1[C@@H](NC(C)=O)CC2
inactive: dose: 2.5 mg/kg/injection, schedule: Q01DX009 (ip), vehicle: Klucel (hydroxypropylcellulose) (HPC) 102 % of control | dose: 5.0 mg/kg/injection, schedule: Q01DX009 (ip), vehicle: Klucel (hydroxypropylcellulose) (HPC) 93 % of control | dose: 10.0 mg/kg/injection, schedule: Q01DX009 (ip), vehicle: Klucel (hydroxypropylcellulose) (HPC) 96 % of control | dose: 20.0 mg/kg/injection, schedule: Q01DX009 (ip), vehicle: Klucel (hydroxypropylcellulose) (HPC) 93 % of control | dose: 28.0 mg/kg/injection, schedule: Q01DX009 (ip), vehicle: Klucel (hydroxypropylcellulose) (HPC) 86 % of control | dose: 40.0 mg/kg/injection, schedule: Q01DX009 (ip), vehicle: Klucel (hydroxypropylcellulose) (HPC) 102 % of control | dose: 56.0 mg/kg/injection, schedule: Q01DX009 (ip), vehicle: Klucel (hydroxypropylcellulose) (HPC) 96 % of control

COc1ccc(O)c2c1C(=O)C=CC2=O
inactive: dose: 0.4 mg/kg/injection, schedule: Q01DX001 (ip), vehicle: saline with Tween-80 104 % of control | dose: 0.8 mg/kg/injection, schedule: Q01DX001 (ip), vehicle: saline with Tween-80 96 % of control | dose: 1.56 mg/kg/injection, schedule: Q01DX001 (ip), vehicle: saline with Tween-80 105 % of control | dose: 3.13 mg/kg/injection, schedule: Q01DX001 (ip), vehicle: saline with Tween-80 102 % of control

c1ccc(C2c3ccccc3C(c3ccccc3)(c3ccccc3)c3ccccc32)cc1
inactive: dose: 12.5 mg/kg/injection, schedule: Q01DX009 (ip), vehicle: Klucel (hydroxypropylcellulose) (HPC) 91 % of control | dose: 25.0 mg/kg/injection, schedule: Q01DX009 (ip), vehicle: Klucel (hydroxypropylcellulose) (HPC) 95 % of control | [7] 94 % of control | [8] 91 % of control

CCOP1(OCC)(OCC)OC(C(F)(F)F)(C(F)(F)F)C(C(F)(F)F)(C(F)(F)F)O1
inactive: dose: 6.25 mg/kg/injection, schedule: Q01DX009 (ip), vehicle: saline with Tween-80 100 % of control | dose: 12.5 mg/kg/injection, schedule: Q01DX009 (ip), vehicle: saline with Tween-80 105 % of control

CC(C)(C)C1=NC(c2ccccc2)N2C(c3ccccc3)NC(c3ccccc3)C1C2c1ccccc1 (stereo unspecified)
inactive: [10] 100 % of control | [11] 93 % of control | [12] 91 % of control

From PubChem BioAssay AID330 (DTP/NCI, 2004)
